{"source": "patent US20250073184A1", "about": "“CANNABIGEROQUINONE COMPOUNDS, COMPOSITIONS INCLUDING SUCH COMPOUNDS, AND USES OF SUCH COMPOUNDS AND COMPOSITIONS” (Juva Life, Inc., priority 2021, published 2025)", "key": {"[1]": {"system": "HL-60 acute promyelocytic leukemia cell line", "assay": "HL-60 cell line toxicity (Cell titer Glo viability)", "details": "HL-60, 72 h", "description": "The half maximal inhibition concentration (IC50) for each compound was determined by harvesting cells during the logarithmic growth period and then counting cell number using hemocytometer. […] Then, using a Biomek FX, test articles were serially diluted (10 mM top, 3× dilution intervals) along with a reference inhibitor (1 mM top, 3× dilution intervals) in acoustic grade Labcyte plate. Then, using an acoustic dispenser (Labcyte550), compounds were added as serially diluted to plate with cells: 90 nL of serially diluted compounds per well. 90 nL DMSO is added to control wells. Test plates were incubated for 72 h in the humidified incubator at 37° C. with 5% CO2. 25 μL of reconstituted Cell titer Glo reagent was added to each well. Each test plate was then incubated for 20 min at room temperature. Luminescence was then recorded using Synergy Neo2Multi-mode Reader.\nIn order to calculate intersect IC50, a dose-response curve was fitted using nonlinear regression model with a sigmoidal dose response.\nThe formula for calculating surviving rate is shown below, and the intersect IC50 was calculated according to the dose-response curve generated by the software:\nThe compounds of interest were assessed cell viability in the HL-60 acute promyelocytic leukemia cell line (ATCC® CCL-240). […] Culture medium were purchased from ATCC, USA."}, "[2]": {"biological_target": "T1, Human COX2 (Homo sapiens, UniProt P35354)", "T1 construct": "1-604 (end); purchased BPS Biosciences 71111; host or cells: baculovirus infected Sf9 cells", "T1 sequence (P35354 18-604)": "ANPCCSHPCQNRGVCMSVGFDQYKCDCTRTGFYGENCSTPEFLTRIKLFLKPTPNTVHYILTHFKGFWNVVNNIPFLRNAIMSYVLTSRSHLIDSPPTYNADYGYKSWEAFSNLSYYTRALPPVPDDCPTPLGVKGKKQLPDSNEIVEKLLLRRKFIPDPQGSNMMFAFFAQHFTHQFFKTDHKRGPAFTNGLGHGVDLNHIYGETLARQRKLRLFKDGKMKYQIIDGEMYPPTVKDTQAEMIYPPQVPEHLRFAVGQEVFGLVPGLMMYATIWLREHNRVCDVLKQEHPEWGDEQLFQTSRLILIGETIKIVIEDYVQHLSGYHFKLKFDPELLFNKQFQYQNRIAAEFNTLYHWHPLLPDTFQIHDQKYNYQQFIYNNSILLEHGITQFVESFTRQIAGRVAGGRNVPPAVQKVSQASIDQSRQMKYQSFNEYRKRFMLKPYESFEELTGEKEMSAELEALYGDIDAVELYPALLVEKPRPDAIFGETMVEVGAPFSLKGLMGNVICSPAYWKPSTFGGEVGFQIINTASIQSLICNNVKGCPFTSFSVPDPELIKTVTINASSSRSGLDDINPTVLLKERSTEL", "assay": "Biochemical COX-2 assay", "details": "recombinant enzyme; read-out: Inhibitory Activity EC50, Cox2", "text": "• Human COX2, GenBank Accession No. NM_000963, a.a. 1-604 (end), with C-terminal FLAG-His-tag, MW=71 kDa, expressed in a baculovirus infected Sf9 cell expression system was obtained from BPS Biosciences (Catalog #71111) • Cyclooxygenase (COX) Activity Assay Kit (Fluorometric) was obtained from Abcam (Catalog #ab204699) • Other reagents: black 384 well assay plates were obtained from Corning (Cat #3820). • Equipment: Synergy Neo2 Multi-mode plate reader (Biotek), Labcyte 550 acoustic dispenser (Labcyte), Biomek FX robotic dispenser (Beckman Coulter), Sorvall Legend RT centrifuge (Kendro).\nSerially diluted compounds were prepared in DMSO in Echo qualified 384 well plates. An assay buffer was then prepared, and supplemented with Cox cofactor and fluorogenic probe as described in the Cox activity kit manual. […]\nSerially diluted compounds were added to the assay plate by acoustic dispensing (Labcyte 550). […] Afterwards, the plate was read on a Synergy Neo2 in fluorescence mode: excitation 535 nm, emission 590 nm. % inhibition of the compound was calculated using following equation:\nwhere RFU100% is fluorescence in control samples without compound, RFU0% is fluorescence in control samples without COX-2, and RFU compound fluorescence in a sample with compound.\nThe calculated %-Inh values were then plotted against compound concentration. […]"}, "[3]": {"system": "PC3 prostate adenocarcenoma cell line", "assay": "PC3 cell line toxicity (Cell titer Glo viability)", "assay_type": "cell-based", "details": "PC3, 72 h", "description": "90 nL DMSO is added to control wells. […] Luminescence was then recorded using Synergy Neo2Multi-mode Reader.\nCulture medium were purchased from ATCC, USA."}}}
{"substance": "Cannabigerol Quinone [Formula VI]", "values": [{"measurement": "higher tolerance of HL-60 cells to the compound than staurosporine", "setting": "[1]", "value": "more than 1,500 fold"}, {"measurement": "Cell Viability (%)", "setting": "[1]; 0.00017 uM", "value": 102.3, "unit": "%"}, {"measurement": "Cell Viability (%)", "setting": "[1]; 0.00051 uM", "value": 113.4, "unit": "%"}, {"measurement": "Cell Viability (%)", "setting": "[1]; 0.0015 uM", "value": 91.6, "unit": "%"}, {"measurement": "Cell Viability (%)", "setting": "[1]; 0.0046 uM", "value": 94.0, "unit": "%"}, {"measurement": "Cell Viability (%)", "setting": "[1]; 0.014 uM", "value": 94.1, "unit": "%"}, {"measurement": "Cell Viability (%)", "setting": "[1]; 0.041 uM", "value": 83.6, "unit": "%"}, {"measurement": "Cell Viability (%)", "setting": "[1]; 0.12 uM", "value": 85.1, "unit": "%"}, {"measurement": "Cell Viability (%)", "setting": "[1]; 0.37 uM", "value": 91.3, "unit": "%"}, {"measurement": "Cell Viability (%)", "setting": "[1]; 1.1 uM", "value": 91.3, "unit": "%"}, {"measurement": "Cell Viability (%)", "setting": "[1]; 3.3 uM", "value": 97.8, "unit": "%"}, {"measurement": "Cell Viability (%)", "setting": "[1]; 10 uM", "value": 81.9, "unit": "%"}, {"measurement": "Cell Viability (%)", "setting": "[1]; 30 uM", "value": 61.5, "unit": "%"}, {"measurement": "EC50", "setting": "[1]; read-out: EC50 (cell viability)", "value": "> 30", "unit": "µM"}, {"measurement": "EC50", "setting": "[2]", "value": 60.6, "unit": "µM"}, {"measurement": "EC50", "setting": "[3]", "value": "> 30", "unit": "µM"}, {"measurement": "higher tolerance of PC3 cells to the compound than staurosporine", "setting": "[3]", "value": "more than 10,000 fold"}, {"measurement": "Cell Viability (%)", "setting": "[3]; 0.00017 uM", "value": 97.4, "unit": "%"}, {"measurement": "Cell Viability (%)", "setting": "[3]; 0.00051 uM", "value": 100.9, "unit": "%"}, {"measurement": "Cell Viability (%)", "setting": "[3]; 0.0015 uM", "value": 96.0, "unit": "%"}, {"measurement": "Cell Viability (%)", "setting": "[3]; 0.0046 uM", "value": 96.9, "unit": "%"}, {"measurement": "Cell Viability (%)", "setting": "[3]; 0.014 uM", "value": 96.5, "unit": "%"}, {"measurement": "Cell Viability (%)", "setting": "[3]; 0.041 uM", "value": 95.9, "unit": "%"}, {"measurement": "Cell Viability (%)", "setting": "[3]; 0.12 uM", "value": 96.0, "unit": "%"}, {"measurement": "Cell Viability (%)", "setting": "[3]; 0.37 uM", "value": 97.7, "unit": "%"}, {"measurement": "Cell Viability (%)", "setting": "[3]; 1.1 uM", "value": 94.0, "unit": "%"}, {"measurement": "Cell Viability (%)", "setting": "[3]; 3.3 uM", "value": 94.6, "unit": "%"}, {"measurement": "Cell Viability (%)", "setting": "[3]; 10 uM", "value": 91.2, "unit": "%"}, {"measurement": "Cell Viability (%)", "setting": "[3]; 30 uM", "value": 84.5, "unit": "%"}]}
